Test results from PMC3620317, “Optimisation of Embryonic and Larval ECG Measurement in Zebrafish for Quantifying the Effect of QT Prolonging Drugs” (PLoS ONE, 2013).
Several values for one entry are separate records, joined by “and”; a condition that tells them apart may be missing. Equal values may be shown once.

Columns and labels:
3 dpf zebrafish = assay: Exclusion of motion artefact: myocardial contractility under excitation-contraction uncouplers; assay type: in vivo; details: for Effect on contraction of cardiomyocytes / myocardial contractility: drug added to embryo holding chamber
Protocol: Firstly, recordings were performed with and without cromakalim and secondly, comparing invasive (intracardial) and non-invasive surface recordings. Cromakalim was added to the embryo holding chamber and ECG signals were recorded before and after drug exposure (QTc values shown in Table S1). […] Therefore, as an independent approach we compared ECG signals from invasive and non-invasive electrode positioning. There was minimal difference between recordings taken invasively and non-invasively (n = 5; Fig. 2B, Table S2).

3 dpf zebrafish larvae = assay: ECG recording in zebrafish larvae before and after drug treatment; details: for Mean interval duration QT / Mean interval duration QTc / Mean interval duration RR / Mean QTc interval duration, After: 3 dpf; for Mean interval duration QT / Mean interval duration QTc / Mean interval duration RR: n = 10; for Effect on heart rate (ƒH): immobilising agents, MESAB at very high concentrations, tubocurarine at any tested concentration; for Effect on QTc interval (in words): 3 dpf zebrafish larvae, over the tested concentrations; for AV block: at particular concentrations and exposure times
Protocol: For all experiments, except the anaesthetic and tubocurarine experiments, fish larvae were anaesthetised in ethyl-3 aminobenzoate methanesulfonate (0.3 mg/ml; Sigma) for 5–10 mins before transfer into 3 ml of embryo medium in the plate used for subsequent measurements. Once anaesthetised, one embryo was then transferred to the ECG recording plate (mini Petri dish with an unscented paraffin wax surface, containing 3 ml of fresh E3 embryo medium without MESAB). The embryo was positioned ventrally within a groove in the wax, and the tip (2 µm diameter) of a filled pre-pulled borosilicate glass micropipette (P84, World Precision Instruments) was positioned on the skin surface between the ventricle and atrium (no penetration) using micromanipulators (Narishige) and Inchworm step motors (Burleigh), viewed under a Nikon microscope (SMZ600). The micropipettes were filled with MicroFil (P85, World Precision Instruments) in 3 M potassium acetate solution (Sigma) and coloured with methylene blue (Sigma) to easier visualise the tips during recordings. A chloridised silver wire which carried the electrical signal to the amplifier was inserted into the micropipettes and a second reference electrode placed in the surrounding medium during recordings. The differential amplifier (NPI electronics) used for recording was operated in DC mode with the high pass filter set at 0.1 Hz. The raw ECG signals were digitised (PowerLab; ADI Instruments) and viewed using LabChart 7 (ADI Instruments).
Non-invasive recordings were taken by applying slight pressure over the surface of the heart using the tip of a glass capillary. Invasive recordings were taken by increasing the speed and also the distance moved by the step motor to puncture the skin over the heart. All of the recording equipment was housed on an air table within a grounded Faraday cage to minimise background noise. Experiments were performed at room temperature (21°C) except when otherwise stated. Temperature was controlled using a sensor placed in the recording plate and a homemade heating element (Cryocon 24 temperature controller). For optimisation experiments, recordings were taken for 5 mins. For the temperature experiments, embryos were initially acclimatised to each temperature for 30 mins before taking a recording of 5 mins. For drug treatments, ECG recordings were taken continuously after drug addition. A 5 mins segment before drug addition and a 15 minute segment where QT prolongation was first apparent by visual observation were selected for analysis.
All drug stocks were made using either DMSO or distilled water depending on solubility, then diluted using E3 embryo medium to make up the final concentrations for recording purposes with DMSO levels at 1%. ECG recordings were taken for 5 mins in 3 ml of embryo medium before addition of drug directly to the recording plate (1 ml) to produce the desired concentration by undergoing a 1 in 4 dilution.
Analysis of the digitised ECG signal was carried out using LabChart and the mean intervals for the ECG parameters R-R, QRS, QT and QTc were calculated. For drug treatments the percentage change in the corrected QT interval (QTc) before and after drug administration was compared. One way ANOVA analysis was then performed to determine statistical significance between differences observed.
Z factor scores were also calculated to determine the robustness of the ECG system as a screening tool, using the mean QTc percentage change before and after drug treatment for each individual fish. The values before drug treatment were standardised. The Z factor score was calculated using the following equation: Z = 1– [3×(σp+σn)/(µp - µn)],
where µp and σp represent mean and SD after treatment, while µn and σn represent mean and SD before treatment. Z factor scores fall into the following range: 1 = ideal, 0.5–1 = excellent, 0–0.5 = marginal, <0 = poor.

[1] = design: method as in earlier work; details: zebrafish larvae ref 56; cited from earlier work
[2] = MESAB 0.1 mg/ml, prior anaesthesia 5–10 minutes
[3] = MESAB 0.3 mg/ml, prior anaesthesia 5–10 minutes
[4] = MESAB 0.5 mg/ml, prior anaesthesia 5–10 minutes
[5] = MESAB 1 mg/ml, prior anaesthesia 5–10 minutes
[6] = tubocurarine 100 μM, continuous exposure
[7] = tubocurarine 400 μM, continuous exposure

Compound: CC(=O)C(C)=NO [BDM, 2,3-butanedione-monoxime]
- Adverse effects on ECG and embryo survival (3 dpf zebrafish): adverse effects on the ECG and embryo survival
- Effect on contraction of cardiomyocytes / myocardial contractility (3 dpf zebrafish): completely remove myocardial contractility

Compound: CCOC(=O)c1cccc(N)c1.CS(=O)(=O)O [MESAB, ethyl-3 aminobenzoate methanesulfonate]
- Mean interval duration QT (3 dpf zebrafish larvae; [2]): 0.3428 s
- Mean interval duration QTc (3 dpf zebrafish larvae; [2]): 0.4944 s
- Mean interval duration RR (3 dpf zebrafish larvae; [2]): 0.4798 s
- Mean interval duration QT (3 dpf zebrafish larvae; [3]): 0.3614 s
- Mean interval duration QTc (3 dpf zebrafish larvae; [3]): 0.5049 s
- Mean interval duration RR (3 dpf zebrafish larvae; [3]): 0.5123 s
- Mean interval duration QT (3 dpf zebrafish larvae; [4]): 0.3515 s
- Mean interval duration QTc (3 dpf zebrafish larvae; [4]): 0.5012 s
- Mean interval duration RR (3 dpf zebrafish larvae; [4]): 0.4917 s
- Mean interval duration QT (3 dpf zebrafish larvae; [5]): 0.3656 s
- Mean interval duration QTc (3 dpf zebrafish larvae; [5]): 0.5133 s
- Mean interval duration RR (3 dpf zebrafish larvae; [5]): 0.5517 s
- Effect on R-R interval (3 dpf zebrafish larvae; MESAB at high concentrations (1 mg/ml), P<0.05): increase of the R-R interval
- Effect on heart rate (ƒH) (3 dpf zebrafish larvae): induced bradycardia

Compound: Cc1ccc2c(c1)C(=O)C1(O)CCN(c3ccccc3)C1=N2 (stereo not drawn) [blebbistatin]
- Adverse effects on ECG and embryo survival (3 dpf zebrafish): adverse effects on the ECG and embryo survival
- Effect on contraction of cardiomyocytes / myocardial contractility (3 dpf zebrafish): completely remove myocardial contractility

Compound: CC1(C)Oc2ccc(C#N)cc2C(N2CCCC2=O)C1O (stereo not drawn) [cromakalim]
- Effect on QTc interval (in words) (3 dpf zebrafish larvae): no perturbation to the QTc interval
- Mean QTc interval duration, After (3 dpf zebrafish larvae; cromakalim 10 µM, n = 5, before drug 0.458 s): 0.461 s
- Mean QTc interval duration, After (3 dpf zebrafish larvae; cromakalim 25 µM, n = 5, before drug 0.459 s): 0.460 s
- Mean QTc interval duration, After (3 dpf zebrafish larvae; cromakalim 50 µM, n = 5, before drug 0.469 s): 0.464 s
- Mean QTc interval duration, After (3 dpf zebrafish larvae; cromakalim 100 µM, n = 5, before drug 0.453 s): 0.449 s
- Mean QTc interval duration, After (3 dpf zebrafish larvae; cromakalim 200 µM, n = 5, before drug 0.476 s): 0.476 s
- Mean QTc interval duration, After (3 dpf zebrafish larvae; cromakalim 300 µM, n = 5, before drug 0.475 s): 0.472 s
- Mean QTc interval duration, After (3 dpf zebrafish larvae; cromakalim 400 µM, n = 5, before drug 0.468 s): 0.474 s
- Effect on contraction of cardiomyocytes / myocardial contractility (3 dpf zebrafish): did not reduce contraction of cardiomyocytes

Compound: O=C(CCCN1CCC(O)(c2ccc(Cl)cc2)CC1)c1ccc(F)cc1 [haloperidol]
- Effect on QTc interval (in words) (3 dpf zebrafish larvae): apparent QT prolongation, which was found to be similar at various concentrations
- AV block (3 dpf zebrafish larvae; 3 dpf larvae): induced an atrioventricular (AV) block and 2∶1 AV block
- Mean QTc interval duration, After (3 dpf zebrafish larvae; haloperidol 50 µM, n = 8, before drug 0.499 s): 0.586 s
- Mean QTc interval duration, After (3 dpf zebrafish larvae; haloperidol 100 µM, n = 8, before drug 0.511 s): 0.603 s
- Mean QTc interval duration, After (3 dpf zebrafish larvae; haloperidol 200 µM, n = 8, before drug 0.504 s): 0.593 s
- Mean QTc interval duration, After (3 dpf zebrafish larvae; haloperidol 300 µM, n = 8, before drug 0.480 s): 0.576 s

Compound: O=c1[nH]c2ccccc2n1C1CCN(CCCC(c2ccc(F)cc2)c2ccc(F)cc2)CC1 [pimozide]
- Effect on QTc interval (in words) (3 dpf zebrafish larvae): statistically significant increase in the corrected QT interval
- AV block (3 dpf zebrafish larvae; 3 dpf larvae): induced an atrioventricular (AV) block
- Mean QTc interval duration, After (3 dpf zebrafish larvae; pimozide 50 µM, n = 8, before drug 0.491 s): 0.629 s
- Mean QTc interval duration, After (3 dpf zebrafish larvae; pimozide 100 µM, n = 8, before drug 0.470 s): 0.610 s

Compound: CC(C)(C)c1ccc(C(O)CCCN2CCC(C(O)(c3ccccc3)c3ccccc3)CC2)cc1 (stereo not drawn) [terfenadine]
- Arrhythmia, ECG screenshot (3 dpf zebrafish larvae; 50 µM terfenadine, after 40 minutes of treatment, 3 dpf larva): arrhythmic phenotype with the presence of ectopic beats
- AV block (3 dpf zebrafish larvae; 3 dpf larvae): 2∶1 AV block
- AV block (3 dpf zebrafish larvae; 3 dpf larvae, listed as Terfenadine): induced an atrioventricular (AV) block
- Arrhythmia development (3 dpf zebrafish larvae; time and concentration-dependent, 3 dpf larvae): development of an arrhythmia
- Metabolism in zebrafish larvae [1]: almost completely metabolised to azacyclone and terfenadine alcohol

Compound: COc1cc2c3cc1Oc1cc(ccc1O)C[C@@H]1c4c(cc(OC)c(O)c4Oc4ccc(cc4)C[C@@H]3N(C)CC2)CC[N+]1(C)C [tubocurarine]
- Effect on heart rate (ƒH) (3 dpf zebrafish larvae): did not affect ƒH at any of the tested concentrations
- Mean interval duration QT (3 dpf zebrafish larvae; [6]): 0.3263 s
- Mean interval duration QTc (3 dpf zebrafish larvae; [6]): 0.4733 s
- Mean interval duration RR (3 dpf zebrafish larvae; [6]): 0.4755 s
- Mean interval duration QT (3 dpf zebrafish larvae; [7]): 0.3306 s
- Mean interval duration QTc (3 dpf zebrafish larvae; [7]): 0.4755 s
- Mean interval duration RR (3 dpf zebrafish larvae; [7]): 0.4863 s

Compound: COc1ccc(CCN(C)CCCC(C#N)(c2ccc(OC)c(OC)c2)C(C)C)cc1OC (stereo not drawn) [verapamil]
- Effect on QTc interval (in words) (3 dpf zebrafish larvae): increased the QTc interval
- Mean QTc interval duration, After (3 dpf zebrafish larvae; verapamil 10 µM, n = 8, before drug 0.482 s): 0.486 s
- Mean QTc interval duration, After (3 dpf zebrafish larvae; verapamil 25 µM, n = 8, before drug 0.478 s): 0.484 s
- Mean QTc interval duration, After (3 dpf zebrafish larvae; verapamil 50 µM, n = 8, before drug 0.471 s): 0.529 s
- Mean QTc interval duration, After (3 dpf zebrafish larvae; verapamil 100 µM, n = 8, before drug 0.473 s): 0.578 s
- Mean QTc interval duration, After (3 dpf zebrafish larvae; verapamil 200 µM, n = 8, before drug 0.484 s): 0.591 s
- Mean QTc interval duration, After (3 dpf zebrafish larvae; verapamil 300 µM, n = 8, before drug 0.477 s): 0.622 s
- Mean QTc interval duration, After (3 dpf zebrafish larvae; verapamil 400 µM, n = 8, before drug 0.481 s): 0.609 s
- Mean QTc interval duration, After (3 dpf zebrafish larvae; verapamil 1000 µM, n = 8, before drug 0.466 s): 0.616 s

Compound: penicillin
- Effect on QTc interval (in words) (3 dpf zebrafish larvae): no effect on the QTc interval
- Mean QTc interval duration, After (3 dpf zebrafish larvae; penicillin 0.1 µM, negative control, n = 8, before drug 0.497 s): 0.495 s
- Mean QTc interval duration, After (3 dpf zebrafish larvae; penicillin 0.3 µM, negative control, n = 8, before drug 0.487 s): 0.492 s
- Mean QTc interval duration, After (3 dpf zebrafish larvae; penicillin 10 µM, negative control, n = 8, before drug 0.490 s): 0.500 s
- Mean QTc interval duration, After (3 dpf zebrafish larvae; penicillin 30 µM, negative control, n = 8, before drug 0.494 s): 0.503 s
- Mean QTc interval duration, After (3 dpf zebrafish larvae; penicillin 50 µM, negative control, n = 8, before drug 0.489 s): 0.488 s
- Mean QTc interval duration, After (3 dpf zebrafish larvae; penicillin 100 µM, negative control, n = 8, before drug 0.506 s): 0.508 s
- Mean QTc interval duration, After (3 dpf zebrafish larvae; penicillin 200 µM, negative control, n = 8, before drug 0.478 s): 0.483 s
- Mean QTc interval duration, After (3 dpf zebrafish larvae; penicillin 300 µM, negative control, n = 8, before drug 0.457 s): 0.454 s
- Mean QTc interval duration, After (3 dpf zebrafish larvae; penicillin 400 µM, negative control, n = 8, before drug 0.514 s): 0.507 s
- Mean QTc interval duration, After (3 dpf zebrafish larvae; penicillin 1000 µM, negative control, n = 8, before drug 0.511 s): 0.501 s
